MIC90 data for 7 compounds are collected here from ChEMBL document CHEMBL3862018, “Structure-activity of antifungal compounds inspired by aminobisabolenes from the sponge Halichondria sp” (2016).

The subject of test [1] is Cryptococcus gattii species complex. As to the kind of experiment: Antifungal activity against Cryptococcus gattii after 24 hrs by microbroth dilution method. It is filed as functional, Cryptococcus bacillisporus.
For test [2], the system named is Candida albicans. As to the kind of experiment: Antifungal activity against Candida albicans ATCC 14503 after 24 hrs by microbroth dilution method. It is filed as functional. The following applies: ATCC 14503, 24 h. Background: Broth dilution looks for growth in wells or tubes with falling amounts of substance.
Test [3] can be described thus: Antifungal activity against Candida glabrata after 24 hrs by microbroth dilution method. Type of test: functional. The following applies: Nakaseomyces glabratus.
A short description of test [4]: Antifungal activity against Candida krusei after 24 hrs by microbroth dilution method. Type of test: functional. The following applies: Pichia kudriavzevii.
Test [5] is described as follows: Antifungal activity against Trichophyton rubrum MRL666 after 72 hrs by CLSI M38-A method. Type of test: functional.

The structures appear in SMILES notation. Converted amounts (≈) assume the structure as drawn.

A word on the MIC90: it is the lowest concentration that inhibits either 90% of growth or 90% of the strains tested, depending on the study. Lower therefore signals greater potency. With `CC(C)CCC[C@](C)(N)C1CCC(C)CC1` (some centres not stated), the MIC90 was 18 µM (≈ 4.06 µg/mL) in test [1], 50 µM (≈ 11.3 µg/mL) in test [2], 18 µM (≈ 4.06 µg/mL) in test [3] and 14 µM (≈ 3.16 µg/mL) in test [4].
Consider `CC(C)=CCC[C@@](C)([C@H]1CC=C(C)CC1)N(C)Cc1cccc2ccccc12`, for which the MIC90 in test [1], in test [2] and in test [5] was > 250 µM throughout.
On to `C[C@@H]1[C@H](O)[C@@H](C)/C=C/C=C/C=C/C=C/C=C/C=C/C=C/[C@H](O[C@@H]2O[C@H](C)[C@@H](O)[C@H](N)[C@@H]2O)C[C@@H]2O[C@](O)(C[C@@H](O)C[C@@H](O)[C@H](O)CC[C@@H](O)C[C@@H](O)CC(=O)O[C@H]1C)C[C@H](O)[C@H]2C(=O)O` [AMPHOTERICIN B], for which the MIC90 in test [1] stood at 0.1 µM (≈ 0.0924 µg/mL); in test [2], 0.3 µM (≈ 0.277 µg/mL); in test [3], 0.2 µM (≈ 0.185 µg/mL); in test [4], 0.5 µM (≈ 0.462 µg/mL).
With `CN(C/C=C/C#CC(C)(C)C)Cc1cccc2ccccc12` [TERBINAFINE], the MIC90 in test [1] is 5.3 µM (≈ 1.54 µg/mL); in test [2], > 250 µM; in test [3], > 250 µM; in test [4], > 250 µM.
In the case of `CC(C)=CCC[C@](C)(N)[C@H]1CC=C(C)CC1`, the MIC90 in test [1] came to 53 µM (≈ 11.7 µg/mL); in test [2], 72 µM (≈ 15.9 µg/mL); in test [3], 38 µM (≈ 8.41 µg/mL); in test [5], 17 µM (≈ 3.76 µg/mL); in test [4], 36 µM (≈ 7.97 µg/mL).
In the case of `CC(C)CCC[C@@](C)(C1CCC(C)CC1)N(C)C` (some centres not stated), the MIC90 stood at 31 µM (≈ 7.86 µg/mL) in test [1], 142 µM (≈ 36 µg/mL) in test [2], 139 µM (≈ 35.2 µg/mL) in test [3] and 58 µM (≈ 14.7 µg/mL) in test [4].
Take `CC(C)=CCC[C@](C)(NCc1cccc2ccccc12)[C@H]1CC=C(C)CC1`: the MIC90 in test [1] is > 250 µM; in test [2] it was > 250 µM; in test [5] it was 70 µM (≈ 25.3 µg/mL).
